“Also recorded” adds a separate entry of the source.
Assays:
B4GALT5/6 = experiment: Quantification of LacCer levels in the CNS (LC-MS/MS); type: in vivo, mouse; settings: NOD EAE
Description: Chemical standards of LacCer (d18:1/16:0) and LacCer (d18:1/18:0) were obtained from Avanti Polar Lipids. Quantification of LacCer (d18:1/16:0) and LacCer (d18:1/18:0) was achieved by LC-MS/MS analysis performed on an Agilent (Agilent Technologies, Santa Clara, Calif.) 6460 triple-quadrupole LC/MS/MS system. The fragments from the [M+H]^+ ions for LacCer and internal standard were subjected to collision induced dissociation and the two major types of fragment ions were monitored via electrospray ionization in the positive ion mode in multiple reaction monitoring (MRM) mode for each ion. These two MRM transitions corresponded to the loss of the neutral lactosyl moiety, and to the formation of the lactose ion. Specifically, the MRM transitions used for quantification for LacCer (d18:1/16:0) and LacCer(d18:1/18:0) were 862.5>[…] and 890.6>548.5, respectively. Secondary confirmatory MRM transitions for LacCer(d18:1/16:0) and LacCer(d18:1/18:0) of 862.5>264.3 and 890.6>264.3 were also monitored. Mass spectrometer parameter settings were gas temp (325° C.), gas flow (12 L/min), nebulizer (25 psi), sheath gas temp (400° C.), sheath gas flow (12 L/min), capillary voltage (4000v), and nozzle voltage (500v). Liquid chromatography conditions with an a Phenomenex Gemini C18 column 4.6×50 mm 5 μm particle size was used for separation. Chromatography method the following flow rate=0.4 mLs/min; solvent A=5 mM ammonium formate in 5% MeOH and 0.1% formic acid v/v/v; solvent B=80% 2-propanol, 15% methanol, 5% water and 0.1% formic acid (v/v/v/v). […] Standard curve mixture was analyzed at various concentrations between 0.10 nM to 3.3 μM in LacCer (d18:1/16:0) and an internal standard concentration of 1 μM. The lower limit of quantification was estimated at 1 nM and a R^2 of 0.9969 was obtained using linear regression analysis. […]
The brain tissue was weighed and homogenized using a Dounce homogenizer (VWR), in the extraction solvent using a Bligh and Dyer type liquid-liquid extraction. […] The dried sample was reconstituted in 100 μl of 2:1 chloroform-methanol, and analyzed using the HPLC-MS.

Ly6C^high monocytes = experiment: Monocytes migration assay (transwell, CCL-2); type: cell-based, mouse; settings: 1 h pre-treatment, CCL-2 50 ng/ml, 3 h
From the text: FIGS. 4a-m. B4GALT6 regulates ccl2 transcriptional activity in astrocytes. (a) Murine ccl2 promoter. (b) Luciferase activity in 293T cells transfected with the ccl2 luciferase reporter plus one of the following constructs encoding IRF-1, p65 or an empty control vector (Empty). Results are relative to secreted alkaline phosphatase activity, presented as fold induction from empty vector. Data from three independent experiments, statistical analysis by Student's t-test. (c) ChIP analysis of the interaction of NF-κB, and IRF-1 with the ccl2 promoter in primary cultured astrocytes, pre-treated with PDMP and LacCer and activated with LPS/IFNγ (as in FIG. 3), 2 hours following LPS/IFNγ induction. (d-h) Recruitment of inflammatory monocytes (defined either as of CD11b^+ Ly6C^high or CD11b^+CD45^high cells) to the CNS of EAE NOD mice treated with PDMP or vehicle, as in (FIG. 1k), analyzed by flow cytometry and presented as cell frequency (e, g) and total cell numbers (f, h). Representative data of three independent experiments. […] (i) The frequency and number of CD11b^+ Ly6C^high monocytes as determined in the CNS 10 days after the i.c.v. injection of astrocytes-specific shRNA lentivirus as in (FIG. 3j). […] (j) monocytes were pre-treated for 1 h with PDMP, LacCer, both (LacCer+PDMP), or vehicle, and monocytes chemotaxis was measured using a transwell chamber system. […]

Compound	CNS LacCer levels (B4GALT5/6; i.c.v. 1×10^7 IU lentivirus at day 35, 10 days after injection)	monocyte migration in a CCL-2 gradient (Ly6C^high monocytes)	CNS LacCer levels (B4GALT5/6; 20 mg/kg twice a day from day 40)
shB4galt6: lentivirus-delivered shRNA against b4galt6 (TRCN0000334278; SEQ ID NO:3) (guide CGATGGACTGAACAATTTATTCTCGAGAATAAATTGTTCAGTCCACG)	significant decrease		
CCCCCCCCCC(=O)N[C@H](CN1CCOCC1)[C@H](O)c1ccccc1 [PDMP, D-threo-1-phenyl-2-decanoylamino-3-morpholino-1-propanol]		did not affect; also recorded: no significance effect	significant decrease
lactosylceramide [LacCer]		did not affect; also recorded: no significance effect	

Reference: patent US9927437B2, “Treating neurodegenerative disease” (THE BRIGHAM AND WOMEN'S HOSPITAL, INC., priority 2013, dated 2018)
